According to patent US10912777B2 (Academia Sinica, priority 2016, dated 2021):
Where two headings read alike, the source gives them in different places.

Experiments:
SK-hep1 cells = assay: Cell viability assay (ALAMAR BLUE), SK-hep1 cells with or without ectopic SLC29A2; format: cell-based
Description: HCC cell lines (Sk-hep1 and Mahlavu) were maintained in Dulbecco's modified Eagle's medium (DMEM) with 10% fetal bovine serum, 1% non-essential amino acid, 1% L-glutamine, and 1% penicillin/streptomycin. All cells were tested for mycoplasma contamination.
pcDNA3.0/HA˜SLC29A2 was generated according to Chen et al. (2010) (Hepatologs, 52(5), 1690-1701), To stably express SLC29A2 or STAT3D, HCC cell lines were transfected with the plasmid according to the instruction manual by JetPrime transfection reagent (Polyplus), and further selected in the presence of G418 (SK-hep1: 800 μg/mL, Mahlavu: 500 μg/mL)

late-stage HCC = settings: cited from earlier work
[1] = system: luciferase-carrying SK-hep1 cells
Description: All animal procedures were conducted under the approval of the institutional animal care and user committee of Academia Sinica. […] The luciferase activities were detected by the IVIS Image system every two weeks, and the images were analyzed with IVIS operating software.
The mice wore sacrificed 48 weeks after the tumor injection or before the tumors grew larger than allowed. The tumor samples were collected and fixed with 4% paraformaldehyde.

Stat3 = settings: SLC29A2 ectopically expressing cells, FIG. 5D; for SLC29A2-induced Stat3 phosphorylation: 6B
SLC29A2 = assay: Confocal microscopy of nuclear translocation; format: cell-based; settings: FIG. 5E
Description: Cells were grown on glass slides. After washing with ice-cold PBS, cells were fixed with methanol, blocked with 5% BSA, and incubated with primary antibodies at 4° C. overnight. The slides were washed with PBS, and incubated with Alexa488 or AIexa594-conjugated secondary antibodies. The slides were then washed with PBS, stained with DAPI and mounted with Dako fluorescent mounting medium (#S3025, Dako). The immunostained cells were acquired by Zeiss LSM 700 laser-scanning microscope with 63X/1.4 objective. The images were analyzed with ZEN, AxioVision, and imagesJ software.

HCC cell lines = HCC cell lines carrying amplified SLC29A2 vs non-amplified cells; FIG. 5A
Description: The cell proliferation and cell viability were detected by […] BLUE® reagent (DAL1100, Thermo Fisher) according to the manufacturer's instruction. […] BLUE® for incubation at 37° C. for 1 hour. The ALAMAR BLUB® fluorescence was excited at 560 nm and measured at 590 nm.

SLC29A2-expressing cells = assay: Trans-well (Boyden chamber) migration assay; format: cell-based; settings: SLC29A2 ectopically expressing cells; FIG. 5C
Description: A total of 1×10^4 cells were seeded in the upper chamber of 8 micron Boyden chamber insert (#MCEP24H48, Millipore) containing a serum-free medium. The inserts were then hanged on the 24-well plate containing a complete medium. After 16 hours, the non-migrated cells were wiped out and the migrated cells were fixed with methanol and stained with Liu's stain. The migrated cells were counted by ImageJ software.

Row | SMILES | resistance of cells to sorafenib (cell viability) (SK-hep1 cells; SLC29A2 expressing cells vs control cells, FIG. 6A) | prolongation of overall survival (late-stage HCC; late-stage HCC patients who received sorafenib) | side effects (late-stage HCC; patients who received sorafenib) | body weight changes and toxicity to mice ([1]; mouse, in vivo) | tumor burden (IVIS) ([1]; oral gavage once a day, sorafenib 10 mg/kg/day, dipyridamole 25 mg/kg/day, 6 weeks after treatment, FIG. 6D) | sensitivity of cells to dipyridamole (cell viability) (SK-hep1 cells; SK-hep1 cells expressing SLC29A2 vs control cells, FIG. 5B) | cyclin D1 down-regulation (Stat3) | SLC29A2-induced Stat3 phosphorylation (Stat3) | SLC29A2-induced Stat3 phosphorylation (Stat3; listed as SLC29A2 inhibitor) | Stat3 nuclear translocation (SLC29A2) | nuclear translocation of SLC29A2 (SLC29A2) | sensitivity of cells to dipyridamole (cell viability, IC50) (HCC cell lines) | trans-well migration (SLC29A2-expressing cells)
1 | CNC(=O)c1cc(Oc2ccc(NC(=O)Nc3ccc(Cl)c(C(F)(F)F)c3)cc2)ccn1 [sorafenib] | much more resistant to sorafenib as compared to the control cells | 3˜6 months | severe side effects | no significant body weight changes and toxicity | reduced the tumor burden in both SLC29A2-expressing and control groups | – | – | – | – | – | – | – | –
2 | OCCN(CCO)c1nc(N2CCCCC2)c2nc(N(CCO)CCO)nc(N3CCCCC3)c2n1 [dipyridamole] | – | – | – | – | – | sensitive to dipyridamole than control cells | down-regulation of cyclin D1 was reversed | inhibits the SLC29A2-induced Stat3 phosphorylation | decreased SLC29A2-induced Stat3 phosphorylation in a dosage-dependent manner | decreased SLC29A2 and Stat3 nuclear translocation | reduces the nuclear translocation of SLC29A2 | sensitive to dipyridamole compared to non-amplified cells | reduced trans-well migration of SLC29A2-expressing cells
